According to patent US20230236169A1, “NANOPLASMONIC BIOSENSOR FOR DETECTING AUTOPHAGY MARKER WITH HIGH SENSITIVITY, AND METHOD OF DETECTING AUTOPHAGY MARKER AND METHOD OF SCREENING DRUG CANDIDATE USING SAME” (KOREA UNIVERSITY RESEARCH AND BUSINESS FOUNDATION, priority 2021, published 2023):

What was measured:
Format in all cases: cell-based, human
[1] = tested on: MDA-MB-231; assay: LC3 nanoplasmonic biosensor analysis of cell lysates of MDA-MB-231 cells; conditions: 12 hours
[2] = tested on: Caov-3 cell line; assay: LC3 Western blotting and LC3 ELISA of Caov-3 cell lysates; conditions: Baf A for 20 minutes and 24 hours, FIG. 14
Method: (§1) Each cell line was cultured in a 10-cm dish under appropriate conditions before cell lysate preparation. […] Caov-3 cells were treated with bafilomycin A1 (1 μM) and allowed to starve for 24 to 48 hours before adding a cytosolic LC3 removal reagent. […] Pellet cells were then washed with ice-cold PBS and incubated for 15 minutes with RIPA lysis buffer and inhibitors (Halt™ Protease and Phosphatase Inhibitor Cocktail). Thereafter, sonication and centrifugation were repeated to afford a cell lysate at a final concentration of 1.6×10^6 cells/mL.
The cell lysate prepared in Experimental Example 2 was quantified with a BCA assay kit (Thermo Fisher Scientific), and 40 μg thereof was loaded into each well. SDS-PAGE was conducted under conditions of 70 minutes or more, 15% gel, and 90 V. Primary (LC3B antibody, Cell Signaling) and secondary (goat anti-mouse, GenDEPOT) antibodies to LC3 were diluted 1:1000 and 1:5000, respectively, and respective antibodies to actin (anti beta-actin, AbFrontier) were also diluted 1:1000 and 1:10000. Other specific conditions were the same as the general protocol for Western blotting.

[3] = tested on: BT-474; assay: Cell viability (EZ-Cytox); conditions: Baf A 50 nM or Tz 20 μg mL^−1; 6, 24 and 48 hours
Method: (§2) Each cell line was preincubated in 96 wells at 5×10^4 cells per well in a CO2 incubator (37° C., 5% CO2, 2-24 hours). […] Each well was treated with 10 μL of EZ-Cytox (DoGen Bio, Korea), followed by further incubation for at least 1 hour. Thereafter, UV-vis absorbance at 450 nm was recorded.

[4] = tested on: MDA-MB-231; assay: Cell viability (EZ-Cytox); conditions: Baf A 50 nM or Tz 20 μg mL^−1; 6, 24 and 48 hours
Method: as §2

[5] = tested on: BT-474; assay: LC3 nanoplasmonic biosensor analysis of cell lysates of BT-474 cells; conditions: 12 hours
Method: as §1
Cleanly washed microscope coverslip slides were pretreated with 10% (v/v) APTES for 1 hour, and then drop-coated with 10 μL of a diluted immuno-AuNR solution (OD: about 0.05). A closed water-bath microfluidic detection chamber including two coverslip slides with a gasket interposed therebetween was assembled and securely fixed for sample incubation and biosensing (FIG. 1). The detection chamber was then mounted on an automated dark-field microscope stage and a syringe pump was connected to the inlet of the detection chamber. Unbound immunogold on the surface of the coverslip slides was removed using ultrapure water at a flow rate of 100 μL min^−1 for 1 hour, followed by treatment with 1 mL of a 0.2 M ethanolamine solution for 30 minutes to inactivate unreacted functional groups. […]
The LSPR wavelength of each immunogold was recorded three times throughout the experiment: 1) before LC3 sample injection, 2) after LC3 sample incubation, and 3) after PEBP1 treatment. The LSPR wavelength of each AuNR stabilized on the bottom coverslip slide was rapidly recorded with an imaging microscope system (SERA, NOST, Seoul, Korea). […] The LSPR mapping results associated with the dark-field images were visualized on a monitor with RAON computer software (NOST, Seoul, Korea), and the plasmon shift (Δλmax) of each LSPR wavelength was calculated using OriginPro 9 software.

[6] = tested on: Caov-3 cell line; assay: LC3 nanoplasmonic biosensor analysis of cell lysates of Caov-3 cells
Method: as §1, with “Caov-3 cells were treated with bafilomycin A1 (1 μM) and allowed to starve for 24 to 48 hours before adding a cytosolic LC3 removal reagent.” left out
Cleanly washed microscope coverslip slides were pretreated with 10% (v/v) APTES for 1 hour, and then drop-coated with 10 μL of a diluted immuno-AuNR solution (OD: about 0.05). A closed water-bath microfluidic detection chamber including two coverslip slides with a gasket interposed therebetween was assembled and securely fixed for sample incubation and biosensing (FIG. 1). The detection chamber was then mounted on an automated dark-field microscope stage and a syringe pump was connected to the inlet of the detection chamber. Unbound immunogold on the surface of the coverslip slides was removed using ultrapure water at a flow rate of 100 μL min^−1 for 1 hour, followed by treatment with 1 mL of a 0.2 M ethanolamine solution for 30 minutes to inactivate unreacted functional groups. Thereafter, at least 10 μL of LC3 sample and PEBP1 (2 μg mL^−1) were injected into the chamber and incubated for 4 hours and 30 minutes, respectively, and contaminants were washed with ultrapure water before biosensing.
The LSPR wavelength of each immunogold was recorded three times throughout the experiment: 1) before LC3 sample injection, 2) after LC3 sample incubation, and 3) after PEBP1 treatment. The LSPR wavelength of each AuNR stabilized on the bottom coverslip slide was rapidly recorded with an imaging microscope system (SERA, NOST, Seoul, Korea). An automated surface scanning and imaging module with a high-resolution EMCCD detector (888, iXon Life, Oxford Instrument, Belfast, Northern Ireland) was connected to large-area (130×130 μm) computer-assisted high-speed LSPR mapping through a single click. The LSPR mapping results associated with the dark-field images were visualized on a monitor with RAON computer software (NOST, Seoul, Korea), and the plasmon shift (Δλmax) of each LSPR wavelength was calculated using OriginPro 9 software.
Then, the LSPR peak shift of the Caov-3 cell line treated with bafilomycin A or not treated therewith was represented in the form of a cumulative bar graph, as shown in FIG. 13. Here, the regular and hatched boxes represent the measured first and second LSPR shifts, respectively, and error bars correspond to the standard errors measured in 60 immuno-AuNRs.

[7] = before the additional treatment (read as 50 nM Baf A alone)

## CO/C1=C\C(C)=C\[C@@H](C)[C@@H](O)[C@@H](C)C/C(C)=C/C=C/[C@H](OC)[C@@H]([C@@H](C)[C@@H](O)[C@H](C)[C@@]2(O)C[C@@H](O)[C@H](C)[C@@H](C(C)C)O2)OC1=O [Baf A, bafilomycin A]
[1]; 50 nM Baf A, versus no Baf A
  change of first-step LSPR Δλmax and LC3-II ratio: greater first-step LSPR Δλmax and an increased LC3-II ratio
[1]; [7]
  first-step LSPR Δλmax: 10.40±0.35 nm
[2]
  LC3 expression by Western blotting and ELISA: LC3-II accumulation was induced
[3]
  cell viability over time: gradual cell death
[4]
  cell viability over time: gradual cell death
[5]; 50 nM Baf A, versus no Baf A
  change of first-step LSPR Δλmax and LC3-II ratio: greater first-step LSPR Δλmax and an increased LC3-II ratio
[5]; [7]
  LC3-II ratio (Equation 1): 68.1%
  first-step LSPR Δλmax: 7.23±0.33 nm
[6]; Baf A for 20 minutes
  LC3-II composition (Equation 1): 6.78%
[6]; Baf A for 24 hours
  LC3-II composition (Equation 1): 78.8%
  first LSPR peak shift: 10.2±0.25 nm
[6]; Baf A for 24 hours, after PEBP1
  second LSPR peak shift: 1.53±0.29 nm
